Where only a bound is given, the exact number is not on record here.

The text below walks through data of ChEMBL document CHEMBL5291721, “A preclinical secondary pharmacology resource illuminates target-adverse drug reaction associations of marketed drugs” (Nat Commun, 2023).

Assay [1] deals with T1, Alpha-1A adrenergic receptor (Homo sapiens, UniProt P35348).
T1 sequence (P35348 whole entry): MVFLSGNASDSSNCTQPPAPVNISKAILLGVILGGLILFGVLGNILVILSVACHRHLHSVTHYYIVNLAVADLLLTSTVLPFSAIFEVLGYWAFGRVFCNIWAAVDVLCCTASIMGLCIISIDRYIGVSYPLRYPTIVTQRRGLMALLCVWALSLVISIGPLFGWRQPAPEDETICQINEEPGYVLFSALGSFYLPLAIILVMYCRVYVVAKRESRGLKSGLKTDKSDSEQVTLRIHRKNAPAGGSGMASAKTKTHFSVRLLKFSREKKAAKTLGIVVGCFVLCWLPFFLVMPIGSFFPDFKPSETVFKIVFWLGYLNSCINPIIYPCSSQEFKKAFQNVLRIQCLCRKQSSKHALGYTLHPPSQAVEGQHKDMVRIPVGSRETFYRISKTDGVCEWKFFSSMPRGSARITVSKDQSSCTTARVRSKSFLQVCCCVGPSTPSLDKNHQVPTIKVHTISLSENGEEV
The assay is classed as functional, cell-based.

The next assay deals with T2, Estrogen receptor (Homo sapiens, UniProt P03372).
T2 sequence (P03372 whole entry): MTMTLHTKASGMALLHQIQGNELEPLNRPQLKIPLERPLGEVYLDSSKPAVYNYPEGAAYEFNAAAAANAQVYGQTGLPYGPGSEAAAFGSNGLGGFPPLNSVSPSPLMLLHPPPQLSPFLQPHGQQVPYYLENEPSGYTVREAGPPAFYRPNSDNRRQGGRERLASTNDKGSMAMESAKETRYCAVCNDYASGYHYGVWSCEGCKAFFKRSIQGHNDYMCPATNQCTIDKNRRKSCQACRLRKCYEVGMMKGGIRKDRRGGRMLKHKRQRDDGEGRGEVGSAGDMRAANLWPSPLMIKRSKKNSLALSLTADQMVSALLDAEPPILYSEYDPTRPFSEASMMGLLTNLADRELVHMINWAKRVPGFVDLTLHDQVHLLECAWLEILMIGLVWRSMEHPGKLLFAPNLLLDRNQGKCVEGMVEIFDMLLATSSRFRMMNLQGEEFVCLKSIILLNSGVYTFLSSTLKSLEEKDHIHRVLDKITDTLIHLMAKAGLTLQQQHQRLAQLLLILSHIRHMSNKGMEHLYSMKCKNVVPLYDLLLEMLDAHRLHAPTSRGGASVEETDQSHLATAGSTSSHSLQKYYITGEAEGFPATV

Another assay deals with T3, Progesterone receptor (Homo sapiens, UniProt P06401).
T3 sequence (P06401 whole entry): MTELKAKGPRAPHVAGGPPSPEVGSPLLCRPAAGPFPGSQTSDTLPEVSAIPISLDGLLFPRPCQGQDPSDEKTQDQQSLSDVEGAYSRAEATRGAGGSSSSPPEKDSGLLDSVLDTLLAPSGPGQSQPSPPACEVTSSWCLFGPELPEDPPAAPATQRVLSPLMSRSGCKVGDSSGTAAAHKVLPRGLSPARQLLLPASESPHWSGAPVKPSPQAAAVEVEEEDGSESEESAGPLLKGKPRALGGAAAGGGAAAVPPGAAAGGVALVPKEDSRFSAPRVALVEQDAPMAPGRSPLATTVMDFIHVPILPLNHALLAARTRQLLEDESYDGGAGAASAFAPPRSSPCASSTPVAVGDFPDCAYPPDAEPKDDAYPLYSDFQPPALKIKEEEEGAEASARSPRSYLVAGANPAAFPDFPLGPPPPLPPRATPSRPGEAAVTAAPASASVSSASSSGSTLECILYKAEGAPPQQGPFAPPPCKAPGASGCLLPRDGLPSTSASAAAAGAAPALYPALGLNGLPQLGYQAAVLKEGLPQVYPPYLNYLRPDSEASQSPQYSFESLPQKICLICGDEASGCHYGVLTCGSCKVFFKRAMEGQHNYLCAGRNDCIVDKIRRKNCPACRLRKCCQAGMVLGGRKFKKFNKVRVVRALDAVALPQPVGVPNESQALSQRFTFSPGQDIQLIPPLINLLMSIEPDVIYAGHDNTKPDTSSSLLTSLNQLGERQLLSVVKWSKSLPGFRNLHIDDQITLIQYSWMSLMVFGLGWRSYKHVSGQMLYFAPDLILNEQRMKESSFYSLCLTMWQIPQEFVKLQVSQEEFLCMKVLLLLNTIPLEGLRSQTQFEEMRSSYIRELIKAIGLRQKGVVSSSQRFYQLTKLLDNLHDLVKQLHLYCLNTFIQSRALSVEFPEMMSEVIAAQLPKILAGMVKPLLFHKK
The assay is classed as functional.

Assay [2] has as its target T4, Equilibrative nucleoside transporter 1 (Homo sapiens, UniProt Q99808).
T4 sequence (Q99808 whole entry): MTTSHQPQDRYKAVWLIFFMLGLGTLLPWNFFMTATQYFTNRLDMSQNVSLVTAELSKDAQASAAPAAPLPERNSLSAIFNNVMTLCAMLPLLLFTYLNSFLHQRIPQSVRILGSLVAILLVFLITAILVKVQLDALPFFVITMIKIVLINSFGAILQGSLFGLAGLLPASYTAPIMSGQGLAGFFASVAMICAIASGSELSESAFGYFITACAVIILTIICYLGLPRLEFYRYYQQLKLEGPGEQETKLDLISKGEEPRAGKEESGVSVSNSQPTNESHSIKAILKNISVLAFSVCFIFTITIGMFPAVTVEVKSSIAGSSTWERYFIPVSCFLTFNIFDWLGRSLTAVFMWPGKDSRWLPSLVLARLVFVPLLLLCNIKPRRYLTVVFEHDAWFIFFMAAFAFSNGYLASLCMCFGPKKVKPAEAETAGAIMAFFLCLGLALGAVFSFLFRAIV

The target of assay [3] is T1, Alpha-1A adrenergic receptor. The assay is classed as functional, cell-based. This is another data set of the same source.
Also: assay procedure not described here.

As usually defined, the AC50 is the concentration at which the activity in the assay is half-maximal. Read a low AC50 as activity at low concentration. Consider `CCC1(C2=CCCCCC2)C(=O)NC(=O)NC1=O` [HEPTABARBITAL], for which the AC50 is more than 30 µM in assay [1]; more than 10 µM on Estrogen receptor; more than 10 µM at Progesterone receptor; more than 10 µM in assay [2]; more than 30 µM in assay [3].
Turning to `CC[C@]1(O)C[C@@H]2CN(CCc3c([nH]c4ccccc34)[C@@](C(=O)OC)(c3cc4c(cc3OC)N(C)[C@H]3[C@@](O)(C(N)=O)[C@H](O)[C@]5(CC)C=CCN6CC[C@]43[C@@H]65)C2)C1` [VINDESINE], the AC50 (in assay [1]; at Estrogen receptor; at Progesterone receptor; in assay [2]; in assay [3]) was more than 30 µM each time.
With `Nc1nc2ccc(OC(F)(F)F)cc2s1` [RILUZOLE], the half-maximal activity concentration (AC50) (in assay [1]; at Estrogen receptor; on Progesterone receptor; in assay [2]; in assay [3]) was more than 30 µM each time.
Consider `COc1c(C)c2c(c(O)c1C/C=C(\C)CCC(=O)OCCN1CCOCC1)C(=O)OC2` [MYCOPHENOLATE MOFETIL], for which the concentration at half-maximal activity (AC50) (in assay [1]; on Estrogen receptor; at Progesterone receptor; in assay [2]; in assay [3]) was more than 30 µM in each case.
For `O=C1CN=C(c2ccccc2)c2cc(Cl)ccc2N1CC(F)(F)F` [HALAZEPAM], the AC50 (in assay [1]; at Estrogen receptor; on Progesterone receptor; in assay [2]; in assay [3]) was more than 30 µM throughout.
For `COc1ccc(C(=O)NCc2ccc(OCCN(C)C)cc2)cc1OC` [ITOPRIDE], the concentration at half-maximal activity (AC50) (in assay [1]; on Estrogen receptor; on Progesterone receptor; in assay [2]; in assay [3]) was more than 30 µM each time.
In the case of `CCCCCOC(=O)Nc1nc(=O)n([C@@H]2O[C@H](C)[C@@H](O)[C@H]2O)cc1F` [CAPECITABINE], the concentration at half-maximal activity (AC50) (in assay [1]; at Estrogen receptor; on Progesterone receptor; in assay [2]; in assay [3]) was more than 30 µM each time.
Turning to `O=C(O)Cc1cn(-c2ccccc2)nc1-c1ccc(Cl)cc1` [LONAZOLAC], the AC50 (in assay [1]; at Estrogen receptor; on Progesterone receptor; in assay [2]; in assay [3]) was more than 30 µM in each case.
`Cc1cccc(C)c1NC(=O)C1CCCCN1C` (stereo not given) [MEPIVACAINE]: the AC50 (in assay [1]; on Estrogen receptor; at Progesterone receptor; in assay [2]; in assay [3]) was more than 30 µM each time.
On to `O=C(OCCN1CCOCC1)c1cccnc1Nc1cccc(C(F)(F)F)c1` [MORNIFLUMATE], for which the concentration at half-maximal activity (AC50) (in assay [1]; at Estrogen receptor; on Progesterone receptor; in assay [2]; in assay [3]) was more than 30 µM throughout.
As for `C1=Cc2cccc(OCC3CNCCO3)c2C1` (stereo not given) [INDELOXAZINE], the AC50 (in assay [1]; at Estrogen receptor; at Progesterone receptor; in assay [2]; in assay [3]) was more than 30 µM in each case.
In the case of `Cc1c(O)c(=O)ccn1C` [DEFERIPRONE], the half-maximal activity concentration (AC50) (in assay [1]; on Estrogen receptor; on Progesterone receptor; in assay [2]; in assay [3]) was more than 30 µM throughout.
On to `CCC(C(=O)O)c1ccc(CC(C)C)cc1` (stereo not given) [BUTIBUFEN], for which the AC50 (in assay [1]; on Estrogen receptor; on Progesterone receptor; in assay [2]; in assay [3]) was more than 30 µM throughout.
`Cc1cc2c(OCC(CNC(C)(C)C)OC(=O)c3ccccc3)cccc2[nH]1` (stereo not given) [BOPINDOLOL]: the AC50 (in assay [1]; on Estrogen receptor; on Progesterone receptor; in assay [2]; in assay [3]) was more than 30 µM in each case.
`CCCCCN(C)CCC(O)(P(=O)(O)O)P(=O)(O)O` [IBANDRONIC ACID]: the AC50 (in assay [1]; at Estrogen receptor; on Progesterone receptor; in assay [2]; in assay [3]) was more than 30 µM throughout.
Take `Cc1ccc(-c2nc3ccc(C)cn3c2CC(=O)N(C)C)cc1` [ZOLPIDEM]: the concentration at half-maximal activity (AC50) (in assay [1]; on Estrogen receptor; on Progesterone receptor; in assay [2]; in assay [3]) was more than 30 µM each time.
For `C#CCN(C)[C@H](C)Cc1ccccc1` [SELEGILINE], the AC50 was more than 30 µM in assay [1]; more than 10 µM on Estrogen receptor; more than 10 µM on Progesterone receptor; more than 10 µM in assay [2]; more than 30 µM in assay [3].
In the case of `CCCCCCC(C)(C)c1cc(O)c2c(c1)OC(C)(C)C1CCC(=O)CC21` (stereo not given) [NABILONE], the AC50 (in assay [1]; at Estrogen receptor; at Progesterone receptor; in assay [2]; in assay [3]) was more than 30 µM throughout.
On to `CC(C)(Oc1ccc(C2CC2(Cl)Cl)cc1)C(=O)O` (stereo not given) [CIPROFIBRATE], for which the AC50 (in assay [1]; on Estrogen receptor; on Progesterone receptor; in assay [2]; in assay [3]) was more than 30 µM in each case.
For the compound `COC(=O)[C@H]1[C@@H](OC(=O)c2ccccc2)C[C@@H]2CC[C@H]1N2C` [COCAINE], the concentration at half-maximal activity (AC50) (in assay [1]; at Estrogen receptor; on Progesterone receptor; in assay [2]; in assay [3]) was more than 30 µM in each case.
`CN1C(=O)COc2c(C(=O)NC3CN4CCC3CC4)cc(Cl)cc21` (stereo not given) [AZASETRON]: the concentration at half-maximal activity (AC50) (in assay [1]; at Estrogen receptor; on Progesterone receptor; in assay [2]; in assay [3]) was more than 30 µM each time.
